Measured values reported in the NIST ThermoML archive (doi:10.1021/je500594z).
± gives the expanded uncertainty stated by the source.

Columns and labels:
[1] = 101 kPa, Liquid; for viscosity: Falling or rolling sphere viscometry; for speed of sound: Sing-around technique in a fixed-path interferometer; for mass density: Vibrating tube method
[2] = xn = mol fraction of the nth substance listed; details: 101 kPa, Liquid, x2 = 0; for viscosity: Falling or rolling sphere viscometry; for speed of sound: Sing-around technique in a fixed-path interferometer; for mass density: Vibrating tube method

CCO [ethanol]
[1]
Details | mass density [kg/m3] | speed of sound [m/s] | viscosity [mPa·s]
278.15 K | 802.39 ± 0.11 | 1212.9 ± 0.64 | 1.59 ± 0.01
298.15 K | 785.32 ± 0.12 | 1143.1 ± 0.61 | 1.08 ± 0.01
318.15 K | 767.84 ± 0.12 | 1075.7 ± 0.58 | 0.77 ± 0.01
338.15 K | 749.54 ± 0.13 | 1009.4 ± 0.56 | 0.56 ± 0.01

CCO [ethanol] + CCCCCC[n+]1ccn(C)c1.O=S(=O)([N-]S(=O)(=O)C(F)(F)F)C(F)(F)F
[2]
Details | mass density [kg/m3] | speed of sound [m/s] | viscosity [mPa·s]
278.15 K | 802.39 ± 0.11 | 1212.9 ± 0.64 | 1.59 ± 0.01
298.15 K | 785.32 ± 0.12 | 1143.1 ± 0.61 | 1.08 ± 0.01
318.15 K | 767.84 ± 0.12 | 1075.7 ± 0.58 | 0.77 ± 0.01
338.15 K | 749.54 ± 0.13 | 1009.4 ± 0.56 | –

CCO [ethanol] + CCCC[n+]1ccn(C)c1.O=S(=O)([N-]S(=O)(=O)C(F)(F)F)C(F)(F)F
[2]
Details | mass density [kg/m3] | speed of sound [m/s] | viscosity [mPa·s]
278.15 K | 802.39 ± 0.11 | 1212.9 ± 0.64 | 1.59 ± 0.01
298.15 K | 785.32 ± 0.12 | 1143.1 ± 0.61 | 1.08 ± 0.01
318.15 K | 767.84 ± 0.12 | 1075.7 ± 0.58 | 0.77 ± 0.01
338.15 K | 749.54 ± 0.13 | 1009.4 ± 0.56 | 0.56 ± 0.01

CCO [ethanol] + CCn1cc[n+](C)c1.O=S(=O)([N-]S(=O)(=O)C(F)(F)F)C(F)(F)F
[2]
Details | mass density [kg/m3] | speed of sound [m/s] | viscosity [mPa·s]
278.15 K | 802.39 ± 0.11 | 1212.9 ± 0.64 | 1.59 ± 0.01
298.15 K | 785.32 ± 0.12 | 1143.1 ± 0.61 | 1.08 ± 0.01
318.15 K | 767.84 ± 0.12 | 1075.7 ± 0.58 | 0.77 ± 0.01
338.15 K | 749.54 ± 0.13 | 1009.4 ± 0.56 | 0.56 ± 0.01

CCCCCC[n+]1ccn(C)c1.O=S(=O)([N-]S(=O)(=O)C(F)(F)F)C(F)(F)F
[1]
Details | mass density [kg/m3] | speed of sound [m/s] | viscosity [mPa·s]
278.15 K | 1390.3 ± 0.19 | 1274.6 ± 0.66 | 211.31 ± 10
298.15 K | 1371.64 ± 0.18 | 1226.8 ± 0.64 | 70.46 ± 0.82
318.15 K | 1353.31 ± 0.17 | 1182 ± 0.62 | 30.22 ± 0.24
338.15 K | 1335.25 ± 0.17 | 1139.3 ± 0.61 | –

CCCC[n+]1ccn(C)c1.O=S(=O)([N-]S(=O)(=O)C(F)(F)F)C(F)(F)F
[1]
Details | mass density [kg/m3] | speed of sound [m/s] | viscosity [mPa·s]
278.15 K | 1453.69 ± 0.21 | 1273.8 ± 0.66 | 139.82 ± 4.8
298.15 K | 1434.23 ± 0.21 | 1227.5 ± 0.64 | 51.22 ± 0.12
318.15 K | 1415.13 ± 0.2 | 1184 ± 0.62 | 24.36 ± 0.19
338.15 K | 1396.35 ± 0.19 | 1142.7 ± 0.61 | 13.94 ± 0.11

CCn1cc[n+](C)c1.O=S(=O)([N-]S(=O)(=O)C(F)(F)F)C(F)(F)F
[1]
Details | mass density [kg/m3] | speed of sound [m/s] | viscosity [mPa·s]
278.15 K | 1538.23 ± 0.25 | 1284.9 ± 0.66 | 75.08 ± 1
298.15 K | 1517.76 ± 0.24 | 1240.1 ± 0.64 | 32.02 ± 0.25
318.15 K | 1497.65 ± 0.23 | 1196.6 ± 0.63 | 17.32 ± 0.14
338.15 K | 1477.86 ± 0.22 | 1155.8 ± 0.61 | 10.82 ± 0.08
